Test results published in patent US9580430B2, “9H-pyrimido[4,5-B]indoles and related analogs as BET bromodomain inhibitors” (THE REGENTS OF THE UNIVERSITY OF MICHIGAN, priority 2014, dated 2017).

Legend:
recombinant BRD4 BD1 = target: T1, recombinant BRD4 BD1 (Homo sapiens, UniProt O60885); assay: Competitive fluorescence-polarization (FP) binding assay, BRD4 BD1; conditions: competitive FP assay; protein 10 nM, probe […]; read-out: IC50 (nM) BRD4 BD1; also: probe 1.5 nM
T1 construct: for recombinant BRD4 BD1 and BRD4 BD2 proteins
In short: (§1)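 Buffer: 100 mM potassium phosphate, pH 6.5, 0.01% Triton X-100; compounds added in buffer with 40% ethylene glycol to preformed complex of fluorescent probe with BRD4 BD1 (10 nM final) or BD2 (6 nM final). After 30 min at room temperature, polarization read. IC50 from nonlinear fits of competition curves, with Ki.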

recombinant BRD4 BD2 = target: T2, recombinant BRD4 BD2 (Homo sapiens, UniProt O60885); assay: Competitive fluorescence-polarization (FP) binding assay, BRD4 BD2; conditions: competitive FP assay; protein 6 nM, probe […]; read-out: IC50 (nM) BRD4 BD2; also: probe 1.5 nM
T2 construct: for recombinant BRD4 BD1 and BRD4 BD2 proteins
In short: as §1

MDA-MB-436 = assay: Cell growth inhibition, MDA-MB-436 breast cancer cells (WST-8); format: cell-based; conditions: Homo sapiens, MDA-MB-436, 96 h; 4 days; read-out: IC50 (nM) MDA-MB-436 Cell Line (WST assay)
In short: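 IC50 was computed from WST-8-based cell counting in MDA-MB-436 cells, with absorbance read at 450 nm.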

MOLM-13 = assay: Cell growth inhibition, MOLM-13 leukemia cells (CellTiter-Glo); format: cell-based; conditions: Homo sapiens, MOLM-13, 96 h; 4 days; read-out: IC50 (nM) MOLM-13 Cell Line (CellTiter-Glo assay)
In short: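 Luminescent ATP-based viability (CellTiter-Glo, 10-20 min at room temperature) in compound-treated MOLM-13 cells; the half-maximal inhibitory concentration was calculated from the readout.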

| Compound | IC50 (recombinant BRD4 BD1) | IC50 (recombinant BRD4 BD2) | IC50 (MDA-MB-436) | IC50 (MOLM-13) |
| --- | --- | --- | --- | --- |
| COc1cc2c(cc1-c1c(C)noc1C)[nH]c1nc(C)nc(Nc3cncc(C)c3)c12 [Cpd. No. 108, 7-(3,5-dimethylisoxazol-4-yl)-6-methoxy-2-methyl-N-(5-methylpyridin-3-yl)-9H-pyrimido[4,5-b]indol-4-amine] | 58 nM | 21 nM | 181 nM | 19 nM |
| COc1cc2c(cc1-c1c(C)noc1C)[nH]c1nc(C)nc(Nc3cc(C4CC4)nn3C(C)C)c12 [Cpd. No. 149, N-(3-Cyclopropyl-1-isopropyl-1H-pyrazol-5-yl)-7-(3,5-dimethylisoxazol-4-yl)-6-methoxy-2-methyl-9H-pyrimido[4,5-b]indol-4-amine] | 6.8 nM | 5.4 nM | 14.2 nM | 7.2 nM |
| COc1cc2c(cc1-c1c(C)noc1C)[nH]c1nc(C)nc(Nc3cc(C)nn3C)c12 [Cpd. No. 8, N-(1,3-Dimethyl-1H-pyrazol-5-yl)-7-(3,5-dimethylisoxazol-4-yl)-6-methoxy-2-methyl-9H-pyrimido[4,5-b]indol-4-amine] | 9.7 nM | 8 nM | 55.1 nM | 10.3 nM |
| COc1cc2c(cc1-c1c(C)noc1C)[nH]c1nc(C)nc(Nc3cc(C(C)(C)C)n[nH]3)c12 [Cpd. No. 126, N-(3-(tert-Butyl)-1H-pyrazol-5-yl)-7-(3,5-dimethylisoxazol-4-yl)-6-methoxy-2-methyl-9H-pyrimido[4,5-b]indol-4-amine] | 11 nM | 32.8 nM | 140 nM | 65.3 nM |
| COc1cc2c(cc1-c1c(C)noc1C)[nH]c1nc(C)nc(Nc3ccccc3C(C)C)c12 [Cpd. No. 243, 7-(3,5-dimethylisoxazol-4-yl)-N-(2-isopropylphenyl)-6-methoxy-2-methyl-9H-pyrimido[4,5-b]indol-4-amine] | 15 nM | 14 nM | 162 nM | 61 nM |
| COc1cc2c(cc1-c1c(C)noc1C)[nH]c1nc(C)nc(Oc3ccnc4ccccc34)c12 [Cpd. No. 104, 4-(6-methoxy-2-methyl-4-(quinolin-4-yloxy)-9H-pyrimido[4,5-b]indol-7-yl)-3,5-dimethylisoxazole] | > 1000 nM | 810 nM | 3.4 nM | 603 nM |
| COc1cc2c(cc1-c1c(C)noc1C)[nH]c1nc(C)nc(Nc3c(C)nn(C)c3C)c12 [Cpd. No. 35, 7-(3,5-dimethylisoxazol-4-yl)-6-methoxy-2-methyl-N-(1,3,5-trimethyl-1H-pyrazol-4-yl)-9H-pyrimido[4,5-b]indol-4-amine] | 20.4 nM | 42.9 nM | 88.9 nM | 38.9 nM |
| COc1cc2c(cc1-c1c(C)noc1C)[nH]c1nc(C)nc(Nc3cccc4[nH]ccc34)c12 [Cpd. No. 220, 7-(3,5-dimethylisoxazol-4-yl)-N-(1H-indol-4-yl)-6-methoxy-2-methyl-9H-pyrimido[4,5-b]indol-4-amine] | 17 nM | 9 nM | 72 nM | 37 nM |
| COc1cc2c(cc1-c1c(C)noc1C)[nH]c1nc(C)nc(Nc3cc(C(C)(C)C)nn3C)c12 [Cpd. No. 120, N-(3-tert-Butyl-1-methyl-1H-pyrazol-5-yl)-7-(3,5-dimethylisoxazol-4-yl)-6-methoxy-2-methyl-9H-pyrimido[4,5-b]indol-4-amine] | 9.6 nM | 5.8 nM | 23.5 nM | 23 nM |
| COc1cc2c(cc1-c1c(C)noc1C)[nH]c1nc(C)nc(Nc3cc(Cl)ccc3F)c12 [Cpd. No. 224, N-(5-chloro-2-fluorophenyl)-7-(3,5-dimethylisoxazol-4-yl)-6-methoxy-2-methyl-9H-pyrimido[4,5-b]indol-4-amine] | 105 nM | 33 nM | 740 nM | 192 nM |
| COc1cc2c(cc1-c1c(C)noc1C)[nH]c1nc(C)nc(Nc3c(C#N)cnn3C)c12 [Cpd. No. 174, 5-((7-(3,5-dimethylisoxazol-4-yl)-6-methoxy-2-methyl-9H-pyrimido[4,5-b]indol-4-yl)amino)-1-methyl-1H-pyrazole-4-carbonitrile] | 142 nM | 117 nM | 118 nM | 108 nM |
| COc1cc2c(cc1-c1c(C)noc1C)[nH]c1nc(C)nc(Nc3cccc(C(F)(F)F)c3)c12 [Cpd. No. 214, 7-(3,5-dimethylisoxazol-4-yl)-6-methoxy-2-methyl-N-(3-(trifluoromethyl)phenyl)-9H-pyrimido[4,5-b]indol-4-amine] | 855 nM | 348 nM | 249 nM | 208 nM |
| COc1cc2c(cc1-c1c(C)noc1C)[nH]c1nc(C)nc(Nc3ccnn3C(C)C)c12 [Cpd. No. 175, 7-(3,5-dimethylisoxazol-4-yl)-N-(1-isopropyl-1H-pyrazol-5-yl)-6-methoxy-2-methyl-9H-pyrimido[4,5-b]indol-4-amine] | 28.7 nM | 6.9 nM | 71 nM | 40.5 nM |
| CCn1nc(C2CC2)c(F)c1Nc1nc(C)nc2[nH]c3cc(-c4c(C)noc4C)c(OC)cc3c12 [Cpd. No. 250, N-(3-cyclopropyl-1-ethyl-4-fluoro-1H-pyrazol-5-yl)-7-(3,5-dimethylisoxazol-4-yl)-6-methoxy-2-methyl-9H-pyrimido[4,5-b]indol-4-amine] | 12 nM | 14 nM | 67 nM | 21 nM |
| CCn1ncc(C)c1Nc1nc(C)nc2[nH]c3cc(-c4c(C)noc4C)c(OC)cc3c12 [Cpd. No. 176, 7-(3,5-dimethylisoxazol-4-yl)-N-(1-ethyl-4-methyl-1H-pyrazol-5-yl)-6-methoxy-2-methyl-9H-pyrimido[4,5-b]indol-4-amine] | 13.7 nM | 10.3 nM | 83.3 nM | 52.9 nM |
| COc1cc2c(cc1-c1c(C)noc1C)[nH]c1nc(C)nc(Nc3ccnn3C(C)(C)C)c12 [Cpd. No. 183, N-(1-(tert-butyl)-1H-pyrazol-5-yl)-7-(3,5-dimethylisoxazol-4-yl)-6-methoxy-2-methyl-9H-pyrimido[4,5-b]indol-4-amine] | 9.6 nM | 6.1 nM | 83.7 nM | 29.7 nM |
| COc1cc2c(cc1-c1c(C)noc1C)[nH]c1nc(C)nc(Nc3c4c(nn3C)CCCC4)c12 [Cpd. No. 125, 7-(3,5-Dimethylisoxazol-4-yl)-6-methoxy-2-methyl-N-(2-methyl-4,5,6,7-tetrahydro-2H-indazol-3-yl)-9H-pyrimido[4,5-b]indol-4-amine] | 4.4 nM | 2 nM | 17.5 nM | 11.3 nM |
| COc1cc2c(cc1-c1c(C)noc1C)[nH]c1nc(C)nc(Nc3cc(C)nn3C3CC3)c12 [Cpd. No. 192, N-(1-cyclopropyl-3-methyl-1H-pyrazol-5-yl)-7-(3,5-dimethylisoxazol-4-yl)-6-methoxy-2-methyl-9H-pyrimido[4,5-b]indol-4-amine] | 30.1 nM | 114 nM | 422 nM | 114 nM |
| COc1cc2c(cc1-c1c(C)noc1C)[nH]c1nc(C)nc(Nc3c[nH]c4ncccc34)c12 [Cpd. No. 102, 7-(3,5-dimethylisoxazol-4-yl)-6-methoxy-2-methyl-N-(1H-pyrrolo[2,3-b]pyridin-3-yl)-9H-pyrimido[4,5-b]indol-4-amine] | 18 nM | 17 nM | 363 nM | 510 nM |
| CCn1cc(Nc2nc(C)nc3[nH]c4cc(-c5c(C)noc5C)c(OC)cc4c23)c(C(C)C)n1 [Cpd. No. 199, 7-(3,5-dimethylisoxazol-4-yl)-N-(1-ethyl-3-isopropyl-1H-pyrazol-4-yl)-6-methoxy-2-methyl-9H-pyrimido[4,5-b]indol-4-amine] | 13.3 nM | 14.5 nM | 67.9 nM | 30.5 nM |
| COc1cc2c(cc1-c1c(C)noc1C)[nH]c1nc(C)nc(Nc3cc(F)cc(Cl)c3)c12 [Cpd. No. 225, N-(3-chloro-5-fluorophenyl)-7-(3,5-dimethylisoxazol-4-yl)-6-methoxy-2-methyl-9H-pyrimido[4,5-b]indol-4-amine] | 213 nM | 108 nM | 315 nM | 189 nM |
| COc1cc2c(cc1-c1c(C)noc1C)[nH]c1nc(C)nc(Nc3sc(C)nc3C)c12 [Cpd. No. 177, N-(7-(3,5-dimethylisoxazol-4-yl)-6-methoxy-2-methyl-9H-pyrimido[4,5-b]indol-4-yl)-2,4-dimethylthiazol-5-amine] | 7.9 nM | 13.2 nM | 110 nM | 78.6 nM |
| COc1cc2c(cc1-c1c(C)noc1C)[nH]c1nc(C)nc(Nc3c(C4CC4)c(C)nn3C)c12 [Cpd. No. 140, N-(4-Cyclopropyl-1,3-dimethyl-1H-pyrazol-5-yl)-7-(3,5-dimethylisoxazol-4-yl)-6-methoxy-2-methyl-9H-pyrimido[4,5-b]indol-4-amine] | 39.3 nM | 95 nM | 210 nM | 120 nM |
| COc1cc2c(cc1-c1c(C)noc1C)[nH]c1nc(C)nc(Nc3onc(C)c3C)c12 [Cpd. No. 219, N-(7-(3,5-dimethylisoxazol-4-yl)-6-methoxy-2-methyl-9H-pyrimido[4,5-b]indol-4-yl)-3,4-dimethylisoxazol-5-amine] | 219 nM | 365 nM | 849 nM | 912 nM |
